Experimental data taken from patent US8664276B2, “Stilbene analogs and methods of treating cancer” (University of Kentucky Research Foundation, priority 2011, dated 2014).
Entries after “also recorded” stand apart in the source; their conditions may differ.

What was measured:
[1] = test system: Wnt target genes, Axin2 and c-Myc; test: Western blot of Wnt target proteins in LS174 CRC cells; assay type: cell-based
Experimental: Western blot. Western blots were performed using the following antibodies: β-catenin (Sigma, C2206), c-Myc (Epitomics, 1472-1), Axin2 (Cell Signaling, 2151), β-Actin (Sigma, A1978), TCF4 (Epitomics, 2114-1) and pygopus2 (Santa Cruz, sc-74878), Cyclin D1 (Cell signaling, 2926).
Cyclin B1 levels were decreased, whereas p21^WAF1/CIP1 levels increased, consistent with the fact that p21^WAF1/CIP1 expression is repressed by c-Myc. β-catenin levels were not affected by resveratrol. Next, the mRNA levels of β-catenin target genes were analyzed using RT-PCR. Expression of survivin, Lgr5, CD44, and c-Myc were decreased in resveratrol-treated cells.
A panel of stilbene analogs was designed and synthesized (FIGS. 2, 3, 5A and 6A). […] However, the solubility of 4d was poor and it was not effective below 10 μM concentrations (data not shown). To improve its solubility and activity, compound 4d was modified with 2′-fluoro 4e, 3′-fluoro 4f and 4′-fluoro 4g substituents (FIG. 5D). Both compounds 4e and 4f had good activity at 10 μM, (E)-4-(2-fluorostyryl)-N,N-dimethylaniline.
(§1) Western blot and cell proliferation assay. The activity of fluorinated N,N-dialkylaminostilbenes (FIDAS or FIDAS agents) on Wnt signaling activity in cancer cells were analyzed by Western blot with antibodies against Wnt target genes, such as c-Myc, Axin2. The effects of FlDAS agents on cancer cell growth were analyzed using Cell Viability Analyzer (Beckman Coulter, Vi-Cell XR). These assays have been described previously (see Zhang et al., J. of Med. Chem. 54, 1288-1297 (2011)).

[2] = test system: LS174 CRC cells; test: CRC cell proliferation assay (Vi-Cell); assay type: cell-based; settings: for colon cancer cell proliferation, effectiveness versus resveratrol and 4r: FIG. 14
Experimental: Luciferase and cell proliferation assay. HEK293T cells were transiently transfected in a 12-well plate with 0.2 μg of the Super8xTOPFlash reporter and 0.05 μg of Renilla luciferase reporter. Culture medium was changed after 12 h. After 6 h, cells were treated with DMSO or Wnt inhibitors for 12 h, and then treated with 25 mM LiCl or Wnt conditioned medium. After 12 h, cells were harvested and luciferase activity measured by Dual-luciferase Reporter Assay System (Promega, Madison Wis.). All conditions were done in triplicate and each experiment was carried out at least two times. For cell proliferation assay, CRC cells were treated with DMSO or inhibitors for 2d and 4d. The cell numbers and viability were analyzed by Vi-Cell Cell Viability Analyzer.
as §1

[3] = test system: liver cancer cells; test: Liver cancer cell proliferation; assay type: cell-based; settings: FIG. 15
Experimental: as §1
As previously shown, several metabolites of the halogenated stilbenes of the present disclosure were synthesized (Example 2 and FIG. 3). In this study, the effects of some of these metabolites on cell proliferation were studied.

[4] = test system: Wnt signaling; test: TopFlash luciferase reporter assay in HEK293T cells; assay type: cell-based
Experimental: Luciferase and cell proliferation assay. HEK293T cells were transiently transfected in a 12-well plate with 0.2 μg of the Super8xTOPFlash reporter and 0.05 μg of Renilla luciferase reporter. Culture medium was changed after 12 h. After 6 h, cells were treated with DMSO or Wnt inhibitors for 12 h, and then treated with 25 mM LiCl or Wnt conditioned medium. After 12 h, cells were harvested and luciferase activity measured by Dual-luciferase Reporter Assay System (Promega, Madison Wis.). All conditions were done in triplicate and each experiment was carried out at least two times. For cell proliferation assay, CRC cells were treated with DMSO or inhibitors for 2d and 4d. The cell numbers and viability were analyzed by Vi-Cell Cell Viability Analyzer. To identify Wnt pathway inhibitors for CRC prevention and treatment, a number of anti-cancer agents from plants were screened using the TopFlash reporter assay. The TopFlash reporter was transfected into HEK293T cells, and the cells were treated with Wnt3A-conditioned medium in order to activate the luciferase reporter. […] To determine if resveratrol regulates β-catenin degradation, the cells were treated with 25 mM LiCl, which inhibits GSK-3 and stabilizes β-catenin. In this assay, LiCl activated the reporter more strongly than Wnt3A conditioned medium. […] Emodin is an anti-cancer agent from plants; it exists in many unpurified resveratrol products. Emodin had no effect on Wnt signaling. See Zhang et al., J. of Med. Chem. 54, 1288-1297 (2011).

Question: For `CN(C)c1ccc(CCc2c(F)cccc2F)cc1` [5r, (E)-4-(2,6-Difluorophenethyl)-N,N-dimethylaniline], which “Wnt inhibitory activity in Western blot, qualitative or relative to a comparator” value ([1]; CRC cells) is on record?
Answer: the activity was lost

Question: For `C[N+](C)([O-])c1ccc(/C=C/c2c(Cl)cccc2Cl)cc1` [4bb, (E)-4-(2,6-dichlorostyryl)-N,N-dimethylaniline oxide], which melting point is on record?
Answer: 80 to 82 °C

Question: Which melting point does the source give for `COc1ccc(/C=C/c2ccccc2)cc1` [4b, (E)-4-Methoxystilbene] here?
Answer: 136 to 137 °C

Question: Which “repression of Wnt target genes at 10 μM” value ([1]; CRC cells) does the source give for `CN(C)c1ccc(/C=C/c2c(F)ccc(F)c2F)cc1` [4v, (E)-N,N-Dimethyl-4-(2,3,6-trifluorostyryl)aniline] here?
Answer: active

Question: And the “Wnt inhibitory activity in Western blot, qualitative or relative to a comparator” value ([1]; CRC cells)?
Answer: no significant improvements over compound 4r

Question: What about the melting point of the same molecule?
Answer: 91 to 92 °C

Question: For `CN(C)c1ccc(/C=C/c2c(F)cccc2Cl)cc1` [4x, (E)-4-(2-chloro-6-fluorostyryl)-N,N-dimethylaniline], which melting point is on record?
Answer: 42 to 44 °C

Question: With `CN(C)c1ccc(/C=C/c2cccc(F)c2)cc1` [4f, (E)-4-(3-Fluorostyryl)-N,N-dimethylaniline] as the molecule, how does the “repression of Wnt target genes at 10 μM” value ([1]; CRC cells) read?
Answer: good activity

Question: What about the melting point of the same molecule?
Answer: 147 to 148 °C

Question: With `CN(C)c1ccc(/C=C/c2ccc(F)c(F)c2)cc1` [4t, (E)-4-(3,4-Difluorostyryl)-N,N-dimethylaniline] as the molecule, how does the melting point read?
Answer: 159 to 160 °C

Question: Which “colon cancer cell proliferation, effectiveness versus resveratrol and 4r” value [2] does the source give for `CNc1ccc(C=Cc2c(Cl)cccc2Cl)cc1` [4ee, (E and Z)-4-(2,6-dichlorostyryl)-N-methylaniline] here?
Answer: significantly more effective than resveratrol, as well as compound 4r

Question: And the “liver cancer cell proliferation, effectiveness versus resveratrol and 4r” value [3]?
Answer: significantly more effective than resveratrol, as well as compound 4r

Question: Which melting point does the source give for `CN(C)c1ccc(/C=C/c2ccc(F)cc2)cc1` [4g, (E)-4-(4-Fluorostyryl)-N,N-dimethylaniline] here?
Answer: 197 to 198 °C

Question: For `C[N+](C)([O-])c1ccc(/C=C/c2c(F)cccc2F)cc1` [4z, (E)-4-(2,6-difluorostyryl)-N,N-dimethylaniline oxide], which melting point is on record?
Answer: 100 to 103 °C

Question: What does the source list for `Fc1ccccc1/C=C/c1ccc(N(c2ccccc2)c2ccccc2)cc1` [4i, (E)-4-(2-Fluorostyryl)-N,N-diphenylaniline]?
Answer: repression of Wnt target genes at 10 μM ([1]; CRC cells): inactive; melting point: 114 to 115 °C

Question: With `CN(C)c1cccc(/C=C/c2c(F)cccc2F)c1` [4q, (E)-3-(2,6-Difluorostyryl)-N,N-dimethylaniline] as the molecule, how does the “Wnt inhibitory activity in Western blot, qualitative or relative to a comparator” value ([1]; CRC cells) read?
Answer: not as active as compound 4r

Question: What about the melting point of the same molecule?
Answer: 69 to 71 °C

Question: For `CN(C)c1ccc(/C=C/c2ccccc2F)cc1` [4e, (E)-4-(2-Fluorostyryl)-N,N-dimethylaniline], which “repression of Wnt target genes at 10 μM” value ([1]; CRC cells) is on record?
Answer: good activity

Question: What about the “Wnt inhibitory activity in Western blot, qualitative or relative to a comparator” value ([1]; CRC cells) of the same molecule?
Answer: best among all of the monofluoro-substituted compounds

Question: What about the “CRC cell growth inhibition compared with other compounds” value ([2]; cell proliferation assay) of the same molecule?
Answer: significantly better inhibitor

Question: What about the melting point of the same molecule?
Answer: 124 to 126 °C

Question: For `CN(C)c1ccc(/C=C/c2ccccc2F)c2ccccc12` [4k, (E)-4-(2-Fluorostyryl)-N,N-dimethylnaphthalen-1-amine], which melting point is on record?
Answer: 56 to 58 °C

Question: With `CN(C)c1ccc(/C=C/c2cc(F)ccc2F)cc1` [4o, (E)-4-(2,5-Difluorostyryl)-N,N-dimethylaniline] as the molecule, how does the “repression of Wnt target genes at 10 μM” value ([1]; CRC cells) read?
Answer: repress Wnt target genes

Question: And the “Wnt inhibitory activity in Western blot, qualitative or relative to a comparator” value ([1]; CRC cells)?
Answer: more active than compound 4e

Question: And the melting point?
Answer: 146 to 147 °C

Question: With `CN(C)c1ccc(/C=C/c2c(Cl)cccc2Cl)cc1` [4y, (E)-4-(2,6-dichlorostyryl)-N,N-dimethylaniline] as the molecule, how does the melting point read?
Answer: 96 to 97 °C

Question: Which melting point does the source give for `CN(C)c1ccc(/C=C/c2ccc(F)cc2F)cc1` [4n, (E)-4-(2,4-Difluorostyryl)-N,N-dimethylaniline] here?
Answer: 139 to 140 °C

Question: For `Oc1ccc(/C=C\c2cc(O)cc(O)c2)cc1` [cis- or (Z)-resveratrol, reference compound], which “protein levels of c-Myc and Cyclin D1” value ([1]; LS174 CRC cells) is on record?
Answer: reduced by resveratrol but not its isomer

Question: Which “repression of Wnt target genes at 10 μM” value ([1]; CRC cells) does the source give for `CCN(CC)c1ccc(/C=C/c2ccccc2F)cc1` [4h, (E)-4-(2-Fluorostyryl)-N,N-diethylaniline] here?
Answer: active

Question: And the “Wnt inhibitory activity in Western blot, qualitative or relative to a comparator” value ([1]; CRC cells)?
Answer: not as potent as compound 4e

Question: And the melting point?
Answer: 78 to 79 °C

Question: With `CCN(CC)c1ccc(/C=C/c2c(F)cccc2F)cc1` [4s, (E)-4-(2,6-Difluorostyryl)-N,N-diethylaniline] as the molecule, how does the “Wnt inhibitory activity in Western blot, qualitative or relative to a comparator” value ([1]; CRC cells) read?
Answer: slightly less active than compound 4r; also recorded: active Wnt inhibitor

Question: And the melting point?
Answer: 70 to 71 °C

Question: With `CN(C)c1ccc(/C=C/c2cccc(F)c2F)cc1` [4m, (E)-4-(2,3-Difluorostyryl)-N,N-dimethylaniline] as the molecule, how does the “repression of Wnt target genes at 10 μM” value ([1]; CRC cells) read?
Answer: repress Wnt target genes

Question: What about the “Wnt inhibitory activity in Western blot, qualitative or relative to a comparator” value ([1]; CRC cells) of the same molecule?
Answer: more active than compound 4e

Question: What about the melting point of the same molecule?
Answer: 132 to 133 °C

Question: With `CN1CCN(c2ccc(/C=C/c3ccccc3F)cc2)CC1` [4j, (E)-1-(4-(2-Fluorostyryl)phenyl)-4-methylpiperazine] as the molecule, how does the melting point read?
Answer: 142 to 144 °C

Question: Which “Wnt inhibitory activity in Western blot, qualitative or relative to a comparator” value ([1]; CRC cells) does the source give for `CN(C)c1ccccc1/C=C/c1c(F)cccc1F` [4p, (E)-2-(2,6-Difluorostyryl)-N,N-dimethylaniline] here?
Answer: not as active as compound 4r

Question: For `Cc1cc(O)c2c(c1)C(=O)c1cc(O)cc(O)c1C2=O` [Emodin], which “effect on Wnt signaling” value [4] is on record?
Answer: no effect

Question: Which “repression of Wnt target genes at 30 μM” value ([1]; 30 μM, CRC cells) does the source give for `Nc1ccc(C=Cc2ccccc2)cc1` [4c, 4-aminostilbene, reference compound] here?
Answer: represses Wnt target genes

Question: For `CN(C)c1ccc(/C=C/c2cc(F)cc(F)c2)cc1` [4u, (E)-4-(3,5-Difluorostyryl)-N,N-dimethylaniline], which melting point is on record?
Answer: 136 to 137 °C

Question: For `CN(C)c1ccc(/C=C/c2c(F)cc(F)cc2F)cc1` [4w, (E)-N,N-Dimethyl-4-(2,4,6-trifluorostyryl)aniline], which “repression of Wnt target genes at 10 μM” value ([1]; CRC cells) is on record?
Answer: active

Question: What about the “Wnt inhibitory activity in Western blot, qualitative or relative to a comparator” value ([1]; CRC cells) of the same molecule?
Answer: no significant improvements over compound 4r

Question: What about the melting point of the same molecule?
Answer: 127 to 128 °C

Question: Which results are given for `C[N+](C)([O-])c1ccc(/C=C/c2c(F)cccc2Cl)cc1` [4aa, (E)-4-(2-chloro-6-fluorostyryl)-N,N-dimethylaniline oxide]?
Answer: colon cancer cell proliferation, effectiveness versus resveratrol and 4r [2]: significantly more effective than resveratrol, as well as compound 4r; liver cancer cell proliferation, effectiveness versus resveratrol and 4r [3]: significantly more effective than resveratrol, as well as compound 4r; melting point: 82 to 84 °C
